Point of comparison: CC(C)(C)CC(C)(C)c1cc(O)c(Sc2ccccc2)c(Sc2nnnn2-c2ccccc2)c1O, melting point 147 °C. Against it:
- CCCC(C(=O)N(C)C)n1cc(Cl)c(-c2ccccc2)n1 (stereo unspecified) — lower, 85 to 87 °C
- COc1ccc(-c2nc(C(=O)O)c[nH]2)cc1OC1CCCC1 — higher, 206 to 208 °C
- CNC(=O)CCn1ncccc1=O — lower, 94 to 96 °C
- COC(C)CCC1(O)C2=NCCCN2c2cccc(Cl)c21 (stereo unspecified) — higher, 164 to 165 °C
- O=C(CNc1ccc2[nH]c(=O)[nH]c2c1)N1CCC(Oc2ccc(Cl)cc2)CC1 — higher, 201 to 205 °C
- CCCc1ccc(-n2nc(Cl)cc2-c2ccc(S(C)(=O)=O)cc2)cc1 — lower, 143 to 144 °C
- CCc1nsc(NC(=O)C(C)c2ccc3oc(-c4c(F)cccc4Cl)nc3c2)c1Cl (stereo unspecified) — higher, 178 to 179 °C
- CN(C)C(c1ccccc1)(c1cccc(Oc2ccccc2)c1)C1CCCCC1(O)Cc1ccccc1 (stereo unspecified) — higher, 189 to 190 °C
- O=[N+]([O-])c1ccc(Oc2ccc(F)cc2F)cc1 — lower, 58 to 62 °C
- COc1ccc(C2NCCc3c2[nH]c2ccccc32)cc1 (stereo unspecified) — lower, 131 °C
- CC(C)OC(=O)c1n[nH]c2c(=O)[nH]c3cc(Cl)ccc3c(=O)c12 — higher, 291 °C
- O=c1[nH]c(COc2ccccc2)nc2nccnc12 — higher, 220 to 221 °C
- Cc1cc(-c2c(Cl)c(=O)c2=O)c2c(C)ccc(C(C)C)cc1-2 — lower, 138 to 139 °C
- CN(C(=O)c1ccc(Cl)cc1)c1ccccc1CCCC(=O)O — lower, 123 °C
- COc1ccc(S(=O)(=O)C(c2cc(F)ccc2F)c2cc(N)ncc2Cl)cc1 (stereo unspecified) — higher, 153 to 155 °C
- O=[N+]([O-])c1ccccc1NCCNc1ccccc1 — lower, 64 to 66 °C
- C=C(C)CN1Cc2cscc2Nc2ccccc21 — lower, 83 to 84 °C
- CC(=O)c1cc(C(C)=O)c(O)c(C(C)C)c1O — lower, 132 to 133 °C
- CNC(=O)COc1cc(OC)ccc1O — lower, 136 to 138 °C
- CC(C)(C)OC(=O)N1CCC(OCc2ccccc2)C1CC(O)Cn1cnc2cccc(F)c2c1=O (stereo unspecified) — higher, 219 °C
- COC(=O)c1ccc(Cn2c(C)nc3ccccc32)cc1 — lower, 100 to 101 °C
- Cc1ccc(C(=O)Nc2cccc(C(F)(F)F)c2)cc1Br — higher, 157 to 158 °C
- CCCN(CCC)CC1CCCN(CCNC(=O)N2c3ccccc3C(=O)Nc3cccnc32)C1 (stereo unspecified) — higher, 153 to 155 °C
- CN(C)S(=O)(=O)c1cc2c(c(C(=O)Cl)c1)OCCO2 — higher, 160 to 162 °C
- NS(=O)(=O)c1ccccc1C1=NOCCO1 — lower, 131 to 133 °C
- CCOC(=O)c1cc(CCCOc2c(C)cc(-c3noc(C)n3)cc2C)on1 — lower, 95 to 96 °C
- CCOC(=O)c1csnc1-c1cccc([N+](=O)[O-])c1 — lower, 132 to 136 °C
- COCC(=O)c1cnc2c(OC)cccc2c1Nc1ccccc1C — lower, 122 to 123 °C
- OC(CNc1ccc2ncnn2n1)CN1CCC(OC(c2ccccc2)c2ccccc2)CC1 (stereo unspecified) — lower, 82 to 87 °C
- O=C(c1ccc(F)cc1)N1CCCC(c2nc(Oc3ccccc3)no2)C1 (stereo unspecified) — lower, 96 to 100 °C
- CSc1ccc([N+](=O)[O-])cc1C(F)(F)F — lower, 50 °C
- COc1ccc(CC(O)CO)c(OCc2ccccc2)c1 (stereo unspecified) — lower, 82 to 86 °C
- Cc1ccccc1C(=O)Nc1ccc(C(=O)N2CCCC(N(C)C(=O)c3ccccc3)c3ccccc32)cc1 (stereo unspecified) — higher, 248 to 249 °C
- Cc1nc(C)c(-c2ccnc(Nc3ccc(NC(=O)CCl)cc3)n2)s1 — higher, 217 to 219 °C
- NC(=O)c1sc2nccc(N3CCCN(c4cccc([N+](=O)[O-])c4)CC3)c2c1N — higher, 180 to 185 °C
- Cc1noc(NS(=O)(=O)c2sc3ccc(Cl)cc3c2C)c1Br — higher, 153 to 155 °C
- COc1ccc2cccc(CO)c2c1 — lower, 72 to 74 °C
- NS(=O)(=O)c1ccc(-c2ccccc2-c2ccc(F)c(Cl)c2)cc1 — higher, 192 to 193 °C
- O=c1n(-c2cc(O)c([N+](=O)[O-])cc2F)nc2ccc(Cl)cn12 — higher, 207 to 209 °C
- CN1C(=O)C(NC(=O)Nc2ccccc2Cl)N=C(c2ccccc2)c2ccccc21 (stereo unspecified) — higher, 212 to 214 °C
- CCc1n[nH]c2cc(-c3ccc4nnn(Cc5ccc6ncccc6c5)c4n3)ccc12 — higher, 211 to 213 °C
- O=C1Cc2cc(Oc3ccccc3)ccc2N1 — higher, 148 to 150 °C
- Cc1ccnc2c1N=C(n1ccnc1)c1cccnc1N2C1CC1 — higher, 198 to 200 °C
- CCc1nn2ccccc2c1-c1n[nH]c(=O)cc1C — higher, 216 to 217 °C
- CC(Nc1ccccc1)=C(C#N)C(=O)Nc1ccccc1Cl — lower, 110 to 112 °C
- O=C(NCc1ccccc1)c1ccc2cnccc2n1 — lower, 113 to 115 °C
- CCOC(=O)c1cc2cc([Si](C)(C)C)ccc2[nH]1 — lower, 114 to 115 °C
- O=C(O)C(Cc1ccc(OCCN2c3ccccc3Oc3ccccc32)cc1)C(=O)O — higher, 303 to 307 °C
- CCOC(=O)C(CC(=O)O)(C(=O)OCC)n1cccc1 — lower, 93 to 94 °C
- COC(=O)C(C)(C)OCc1cc2cc(Cl)ccc2n1S(=O)(=O)c1cc(OC)ccc1OC — lower, 132 to 134 °C
- CC1=C(c2ccccc2)C(=O)N(C(C)(C)c2cccc(Cl)c2)CC1 — lower, 117 to 118 °C
- Cc1cc(O)nc(SCC(CS(=O)(=O)c2ccc(-c3ccc(Cl)cc3)cc2)C(=O)O)n1 (stereo unspecified) — higher, 165 to 168 °C
- COC(=O)NNc1cc(C)c(-c2ccc(C#N)cc2)nn1 — higher, 191 to 192 °C
- COc1cccc2sc(-c3ccc([N+](=O)[O-])cc3Cl)nc12 — higher, 187 to 188 °C
- CC(=O)c1cccc(Nc2nnc(-c3cccc(Oc4cccc(C(F)(F)F)c4)c3)s2)c1 — lower, 130 to 133 °C
- C=CCON=C(C)c1cccc(Oc2nc(OC)cc(OC)n2)c1C(=O)OC — lower, 76 to 78 °C
- CS(=O)(=O)NCCCCn1c(CCO)nc2c(N)nc3ccccc3c21 — higher, 206 to 208 °C
- CCCCc1nn(-c2cc([N+](=O)[O-])ccc2Cl)c(C(=O)O)c1Cc1ccc(Br)cc1F — not separable, > 55 °C
- CC(C)(C)[Si](OC1CCC(O)C1COC(c1ccccc1)(c1ccccc1)c1ccccc1)(c1ccccc1)c1ccccc1 (stereo unspecified) — lower, 95.6 to 97 °C
- CCOC(=O)COc1cc(-c2ccccc2)nc2ccccc12 — lower, 96 °C
- CC(=O)NCCC1CCc2ccc3nc(-c4ccccc4)oc3c21 (stereo unspecified) — lower, 124 to 126 °C
- CN1C(O)=C(C(=O)Nc2ccc(Br)cc2)c2cscc2S1(=O)=O — lower, 138 to 140 °C
- CN(C)C(=O)c1noc(-c2cnccc2C(F)(F)F)n1 — lower, 52 to 54 °C
- O=C1CC(c2ccc(-c3ccc(OCc4ccc(Br)cc4)cc3)cc2)Cc2ccccc21 (stereo unspecified) — higher, 191 °C
- COC(=O)CC=Cc1c(C(C)C)cc(C(C)C)cc1C(C)C — lower, 61 to 63 °C
- Cc1c(CC(=O)NS(=O)(=O)c2ccccc2)c2cc(OCc3ccc4ccccc4n3)ccc2n1Cc1ccc(Cl)cc1 — higher, 194 to 197 °C
- CCOC(=O)C1=C(C)NC(OC)=NC1c1cccc([N+](=O)[O-])c1 (stereo unspecified) — lower, 101 to 103 °C
- Cc1cc(C)cc(C(=O)OCC2(N3CCN(C(=O)OC(C)(C)C)CC3)Cc3ccccc3C2)c1 — lower, 139 °C
- CC(C)/[N+]([O-])=C/c1ccc(O)cc1O — higher, 155 to 157 °C
- O=[N+]([O-])c1cc(Cl)c(CCl)c(Cl)c1 — lower, 37 to 39 °C

— a melting point compilation (Tetko et al.; mined from patent text by program, amines drawn as free bases though some values may be those of a salt)
